Results published in patent US12552825B2 (Zikani Therapeutics, Inc., priority 2019, dated 2026).
≈ marks a conversion by molar mass, not a printed value.

How the values were obtained:
[1] = from CO[C@](C)(C[C@@H](C)CN(C)[C@H](CO)CNC(=O)OCc1ccccc1)[C@H](O[C@@H]1O[C@H](C)C[C@H](N(C)C)[C@H]1OC(=O)c1ccccc1)[C@@H](C)C1=C(C)C(=O)OC(C)(C)O1; ester bond; chlorobenzene; 4.0 mM; 165.0 °C; 20.0 h
[2] = tested on: S. aureus MP-12; experiment: microbe, parasite or virus in culture; assay type: cell-based; settings: Staphylococcus aureus, MP12, read-out: MIC S. aureus MP-12
[3] = tested on: K. pneumoniae MP-546; experiment: MIC determination by CLSI broth dilution, K. pneumoniae MP-546; assay type: cell-based; settings: Klebsiella pneumoniae, MP546, CLSI broth dilution; strain MP-546
[4] = tested on: E. coli MP-4; experiment: MIC determination by CLSI broth dilution, E. coli MP-4; assay type: cell-based; settings: Escherichia coli, MP4, CLSI broth dilution; strain MP-4
[5] = tested on: A. baumannii MP-15; experiment: MIC determination by CLSI broth dilution, A. baumannii MP-15; assay type: cell-based; settings: Acinetobacter baumannii, MP15, strain MP-15, read-out: MIC A. baumanii MP-15
[6] = tested on: P. aeruginosa MP-3; experiment: MIC determination by CLSI broth dilution, P. aeruginosa MP-3; assay type: cell-based; settings: Pseudomonas aeruginosa, MP3, strain MP-3
[7] = tested on: K. pneumoniae MP-648; experiment: MIC determination by CLSI broth dilution, K. pneumoniae MP-648; assay type: cell-based; settings: strain MP-648; for MIC: Klebsiella pneumoniae, MP648, CLSI broth dilution

| SMILES | ring closure, yield of all isomers [1] [%] | MIC [2] [µg/mL] | MIC [3] [µg/mL] | MIC [4] [µg/mL] | MIC [5] [µg/mL] | MIC [6] [µg/mL] | MIC [7] [µg/mL] | MIC K. pneumoniae MP-648 ([7]; CLSI broth dilution) |
| --- | --- | --- | --- | --- | --- | --- | --- | --- |
| CO[C@]1(C)C[C@@H](C)CN(C)[C@@H](CNC(=O)OCc2ccccc2)COC(=O)C(C)C(=O)[C@H](C)[C@H]1O[C@@H]1O[C@H](C)C[C@H](N(C)C)[C@H]1OC(=O)c1ccccc1 (stereo partly shown) | 82 | – | – | – | – | – | – | – |
| CCCN1C[C@H](C)C[C@@](C)(OC)[C@H](O[C@@H]2O[C@H](C)C[C@H](N(C)C)[C@H]2O)[C@@H](C)C(=O)C(C)(C)C(=O)OC[C@H]1CCCN1Cc2ccccc2C1 [Compound 145, (3R,6R,8R,9R,10R)-9-(((2S,3R,4S,6R)-4-(dimethylamino)-3-hydroxy-6-methyltetrahydro-2H-pyran-2-yl)oxy)-3-(3-(isoindolin-2-yl)propyl)-8-methoxy-6,8,10,12,12-pentamethyl-4-propyl-1-oxa-4-azacyclotridecane-11,13-dione] | – | < 4 | < 4 | < 4 | > 32 | < 4 | < 4 | – |
| CCN1C[C@H](C)C[C@@](C)(OC)[C@H](O[C@@H]2O[C@H](C)C[C@H](N(C)C)[C@H]2O)[C@@H](C)C(=O)C(C)(C)C(=O)OC[C@H]1[C@H](O)CCN1CCCC1 [Compound 146] | – | 4 to 32 (≈ 6.23 to 49.9 µM) | < 4 | < 4 | > 32 | > 32 | < 4 | – |
| CCN1C[C@H](C)C[C@@](C)(OC)[C@H](O[C@@H]2O[C@H](C)C[C@H](N(C)C)[C@H]2O)[C@@H](C)C(=O)C(C)(C)C(=O)OC[C@H]1[C@@H](CCN1CCCC1)OC [Compound 147] | – | 4 to 32 (≈ 6.1 to 48.8 µM) | 4 to 32 (≈ 6.1 to 48.8 µM) | < 4 | > 32 | > 32 | 4 to 32 (≈ 6.1 to 48.8 µM) | – |
| CO[C@]1(C)C[C@@H](C)CN(C)[C@H](CC2=CCN(CC3CC3)CC2)COC(=O)C(C)(C)C(=O)[C@H](C)[C@H]1O[C@@H]1O[C@H](C)C[C@H](N(C)C)[C@H]1O [Compound 148] | – | 4 to 32 (≈ 6.15 to 49.2 µM) | 4 to 32 (≈ 6.15 to 49.2 µM) | < 4 | > 32 | > 32 | 4 to 32 (≈ 6.15 to 49.2 µM) | – |
| CCCN1CCC(=C[C@@H]2COC(=O)C(C)(C)C(=O)[C@H](C)[C@@H](O[C@@H]3O[C@H](C)C[C@H](N(C)C)[C@H]3O)[C@](C)(OC)C[C@@H](C)CN2C)CC1 [Compound 149] | – | < 4 | < 4 | < 4 | > 32 | > 32 | < 4 | – |
| CO[C@]1(C)C[C@@H](C)CN(C)[C@H](C=C2CCN(CC3CC3)CC2)COC(=O)C(C)(C)C(=O)[C@H](C)[C@H]1O[C@@H]1O[C@H](C)C[C@H](N(C)C)[C@H]1O [Compound 150] | – | 4 to 32 (≈ 6.15 to 49.2 µM) | < 4 | < 4 | > 32 | > 32 | 4 to 32 (≈ 6.15 to 49.2 µM) | – |
| CO[C@]1(C)C[C@@H](C)CN(C)[C@@H](CCCN2CCC2)COC(=O)C(C)(C)C(=O)[C@H](C)[C@H]1O[C@@H]1O[C@H](C)C[C@H](N(C)C)[C@H]1O [Compound 160, (3S,6R,8R,9R,10R)-3-(3-(azetidin-1-yl)propyl)-9-(((2S,3R,4S,6R)-4-(dimethylamino)-3-hydroxy-6-methyltetrahydro-2H-pyran-2-yl)oxy)-8-methoxy-4,6,8,10,12,12-hexamethyl-1-oxa-4-azacyclotridecane-11,13-dione] | – | 4 to 32 (≈ 6.69 to 53.5 µM) | < 4 | < 4 | > 32 | > 32 | 4 to 32 (≈ 6.69 to 53.5 µM) | – |
| CO[C@]1(C)C[C@@H](C)CN(C)[C@H](CCCN2CCCC2)COC(=O)C(C)(C)C(=O)[C@H](C)[C@H]1O[C@@H]1O[C@H](C)C[C@H](N(C)C)[C@H]1O [Compound 161, (3R,6R,8R,9R,10R)-9-(((2S,3R,4S,6R)-4-(dimethylamino)-3-hydroxy-6-methyltetrahydro-2H-pyran-2-yl)oxy)-8-methoxy-4,6,8,10,12,12-hexamethyl-3-(3-(pyrrolidin-1-yl)propyl)-1-oxa-4-azacyclotridecane-11,13-dione] | – | < 4 | < 4 | < 4 | > 32 | 4 to 32 (≈ 6.54 to 52.3 µM) | < 4 | – |
| CCN(C)CC[C@@H](O)[C@@H]1COC(=O)C(C)(C)C(=O)[C@H](C)[C@@H](O[C@@H]2O[C@H](C)C[C@H](N(C)C)[C@H]2O)[C@](C)(OC)C[C@@H](C)CN1CC [Compound 168] | – | 4 to 32 (≈ 6.35 to 50.8 µM) | 4 to 32 (≈ 6.35 to 50.8 µM) | < 4 | > 32 | > 32 | < 4 | – |
| CCCCCCCN1CCC(C[C@@H]2COC(=O)[C@@](C)(Cc3ccccc3)C(=O)[C@H](C)[C@@H](O[C@@H]3O[C@H](C)C[C@H](N(C)C)[C@H]3O)[C@](C)(OC)C[C@@H](C)CN2C)CC1 [Compound 171] | – | 4 to 32 (≈ 5.18 to 41.4 µM) | 4 to 32 (≈ 5.18 to 41.4 µM) | < 4 | > 32 | > 32 | 4 to 32 (≈ 5.18 to 41.4 µM) | – |
| C=C(C)C[C@]1(C)C(=O)OC[C@@H](CC2CCN(CCCCCCC)CC2)N(C)C[C@H](C)C[C@@](C)(OC)[C@H](O[C@@H]2O[C@H](C)C[C@H](N(C)C)[C@H]2O)[C@@H](C)C1=O [Compound 172] | – | 4 to 32 (≈ 5.43 to 43.5 µM) | 4 to 32 (≈ 5.43 to 43.5 µM) | 4 to 32 (≈ 5.43 to 43.5 µM) | > 32 | > 32 | – | ++ (values of greater than 4 mg/L and less than or equal to 32 mg/L) |
| CCCCCCCN1CCC(C[C@@H]2COC(=O)[C@@](C)(Cl)C(=O)[C@H](C)[C@@H](O[C@@H]3O[C@H](C)C[C@H](N(C)C)[C@H]3O)[C@](C)(OC)C[C@@H](C)CN2C)CC1 [Compound 173] | – | > 32 | < 4 | < 4 | > 32 | > 32 | 4 to 32 (≈ 5.58 to 44.7 µM) | – |
| CCCCCCCN1CCC(C[C@@H]2COC(=O)[C@@](C)(CCC)C(=O)[C@H](C)[C@@H](O[C@@H]3O[C@H](C)C[C@H](N(C)C)[C@H]3O)[C@](C)(OC)C[C@@H](C)CN2C)CC1 [Compound 174] | – | 4 to 32 (≈ 5.52 to 44.2 µM) | 4 to 32 (≈ 5.52 to 44.2 µM) | < 4 | > 32 | > 32 | 4 to 32 (≈ 5.52 to 44.2 µM) | – |
| CCCCCCCN1CCC(C[C@@H]2COC(=O)[C@@](C)(COC)C(=O)[C@H](C)[C@@H](O[C@@H]3O[C@H](C)C[C@H](N(C)C)[C@H]3O)[C@](C)(OC)C[C@@H](C)CN2C)CC1 [Compound 176] | – | > 32 | < 4 | < 4 | > 32 | > 32 | 4 to 32 (≈ 5.51 to 44.1 µM) | – |
| CCCN1C[C@H](C)C[C@@](C)(OC)[C@H](O[C@@H]2O[C@H](C)C[C@H](N(C)C)[C@H]2O)[C@@H](C)C(=O)C(C)(C)C(=O)OC[C@H]1CCCN1CCc2ncncc2C1 [Compound 182, (3R,6R,8R,9R,10R)-3-(3-(7,8-dihydropyrido[4,3-d]pyrimidin-6 (5H)-yl)propyl)-9-(((2S,3R,4S,6R)-4-(dimethylamino)-3-hydroxy-6-methyltetrahydro-2H-pyran-2-yl)oxy)-8-methoxy-6,8,10,12,12-pentamethyl-4-propyl-1-oxa-4-azacyclotridecane-11,13-dione] | – | 4 to 32 (≈ 5.68 to 45.5 µM) | 4 to 32 (≈ 5.68 to 45.5 µM) | < 4 | > 32 | > 32 | 4 to 32 (≈ 5.68 to 45.5 µM) | – |
